In patent US5250540A, “Aminomethyl-substituted 2,3-dihydropyrano[2,3-b]pyridines and their use in medicaments” (Bayer Aktiengesellschaft, priority 1991, dated 1993):
Structures can show the parent of a compound that is named as a salt.

Molecular target: 5-HT1-receptor (5-hydroxytryptamine receptors of subtype 1)
Test: receptor binding studies using preparations of calf hippocampus membranes, radioligand 3H-serotonin
Conditions: ^3 H-serotonin as radioactively labelled ligand
Description: In Table 1 the high affinity of the compounds according to the invention for 5-hydroxytryptamine receptors of subtype 1 is exemplified. The values given relate to data obtained from receptor binding studies using preparations of calf hippocampus membranes. The radioactively labelled ligand used for this was ^3 H-serotonin.

Question: With `O=C1c2ccccc2S(=O)(=O)N1CCCCNCC1CCc2cccnc2O1` (stereo not shown) [Example 4, 2-N-(4-Butylsaccharinyl)-aminomethyl-2,3-dihydropyrano2,3-b]pyridine HCl salt] as the compound, how does the Ki read?
Answer: The Ki was 1 nM.
